From ChEMBL document CHEMBL5291721, “A preclinical secondary pharmacology resource illuminates target-adverse drug reaction associations of marketed drugs” (Nat Commun, 2023) come the findings set out here.

Each structure is given as a SMILES string.

Test [1] addresses Voltage-gated inwardly rectifying potassium channel KCNH2 (Homo sapiens, UniProt Q12809). The format is functional. The settings on record: read-out: AC50.
Test [2] deals with cGMP-inhibited 3',5'-cyclic phosphodiesterase 3A (Homo sapiens, UniProt Q14432). The format is functional.
Chain of cGMP-inhibited 3',5'-cyclic phosphodiesterase 3A (Q14432 whole entry): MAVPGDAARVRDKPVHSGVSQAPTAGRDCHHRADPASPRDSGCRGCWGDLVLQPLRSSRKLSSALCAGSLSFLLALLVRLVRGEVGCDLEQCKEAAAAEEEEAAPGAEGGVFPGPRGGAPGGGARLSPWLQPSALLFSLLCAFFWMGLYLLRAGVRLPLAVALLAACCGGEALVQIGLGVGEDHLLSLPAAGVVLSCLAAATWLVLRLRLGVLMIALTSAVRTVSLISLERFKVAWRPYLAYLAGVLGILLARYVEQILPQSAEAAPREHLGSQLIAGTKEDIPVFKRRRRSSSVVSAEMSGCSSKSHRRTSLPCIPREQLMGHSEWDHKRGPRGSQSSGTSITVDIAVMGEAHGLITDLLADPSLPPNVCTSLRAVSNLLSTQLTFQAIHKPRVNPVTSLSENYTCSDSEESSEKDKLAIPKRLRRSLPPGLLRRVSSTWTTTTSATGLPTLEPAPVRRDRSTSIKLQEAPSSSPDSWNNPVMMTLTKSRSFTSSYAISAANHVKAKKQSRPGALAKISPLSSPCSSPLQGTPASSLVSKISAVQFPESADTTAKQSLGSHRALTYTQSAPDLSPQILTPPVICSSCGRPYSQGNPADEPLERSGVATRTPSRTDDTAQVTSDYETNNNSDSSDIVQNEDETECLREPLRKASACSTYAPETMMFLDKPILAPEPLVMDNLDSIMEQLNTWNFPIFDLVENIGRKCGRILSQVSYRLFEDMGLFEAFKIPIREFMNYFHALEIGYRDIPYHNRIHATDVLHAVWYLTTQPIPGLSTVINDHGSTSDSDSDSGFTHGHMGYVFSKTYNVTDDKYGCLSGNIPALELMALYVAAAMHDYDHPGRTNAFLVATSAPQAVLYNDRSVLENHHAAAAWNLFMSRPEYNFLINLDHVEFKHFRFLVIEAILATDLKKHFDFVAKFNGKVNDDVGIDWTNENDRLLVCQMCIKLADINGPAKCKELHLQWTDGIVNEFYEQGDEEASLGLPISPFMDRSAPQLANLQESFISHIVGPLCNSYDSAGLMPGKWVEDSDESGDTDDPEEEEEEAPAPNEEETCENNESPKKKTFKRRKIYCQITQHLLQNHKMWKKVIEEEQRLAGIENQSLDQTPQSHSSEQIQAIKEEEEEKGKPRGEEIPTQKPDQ
For test [3], the target named is Gamma-aminobutyric acid receptor subunit alpha-1 (Rattus norvegicus, UniProt P62813). The format is functional.
Chain of Gamma-aminobutyric acid receptor subunit alpha-1 (P62813 whole entry): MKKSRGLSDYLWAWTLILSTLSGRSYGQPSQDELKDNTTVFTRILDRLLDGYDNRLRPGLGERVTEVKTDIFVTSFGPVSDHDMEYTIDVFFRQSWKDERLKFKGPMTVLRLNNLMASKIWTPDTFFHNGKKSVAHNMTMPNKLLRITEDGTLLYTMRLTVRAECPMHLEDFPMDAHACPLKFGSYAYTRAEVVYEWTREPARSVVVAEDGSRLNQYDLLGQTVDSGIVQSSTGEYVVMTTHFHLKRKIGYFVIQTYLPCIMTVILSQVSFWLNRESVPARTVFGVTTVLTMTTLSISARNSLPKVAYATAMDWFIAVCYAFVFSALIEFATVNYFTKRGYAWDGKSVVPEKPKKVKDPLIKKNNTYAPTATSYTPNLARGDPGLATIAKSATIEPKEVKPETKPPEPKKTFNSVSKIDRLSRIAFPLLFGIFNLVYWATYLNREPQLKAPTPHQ
In test [4] the target is T1, 5-hydroxytryptamine receptor 3A (Homo sapiens, UniProt P46098).
T1 sequence (P46098 whole entry): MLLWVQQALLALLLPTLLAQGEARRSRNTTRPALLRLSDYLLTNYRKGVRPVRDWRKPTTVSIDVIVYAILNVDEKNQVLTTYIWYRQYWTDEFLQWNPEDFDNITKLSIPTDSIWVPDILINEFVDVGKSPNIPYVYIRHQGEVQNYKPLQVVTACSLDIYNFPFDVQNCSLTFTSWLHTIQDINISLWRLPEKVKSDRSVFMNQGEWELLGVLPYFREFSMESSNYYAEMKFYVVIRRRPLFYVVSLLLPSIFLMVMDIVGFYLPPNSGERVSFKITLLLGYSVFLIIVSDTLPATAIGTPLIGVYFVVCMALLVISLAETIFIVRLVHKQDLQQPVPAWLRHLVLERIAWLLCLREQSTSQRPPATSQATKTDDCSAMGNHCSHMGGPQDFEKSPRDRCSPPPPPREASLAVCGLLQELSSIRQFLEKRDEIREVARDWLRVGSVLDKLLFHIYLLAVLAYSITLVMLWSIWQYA
The format is functional.

The target in test [5] is T2, Prostaglandin G/H synthase 1 (Rattus norvegicus, UniProt Q63921).
T2 sequence (Q63921 whole entry): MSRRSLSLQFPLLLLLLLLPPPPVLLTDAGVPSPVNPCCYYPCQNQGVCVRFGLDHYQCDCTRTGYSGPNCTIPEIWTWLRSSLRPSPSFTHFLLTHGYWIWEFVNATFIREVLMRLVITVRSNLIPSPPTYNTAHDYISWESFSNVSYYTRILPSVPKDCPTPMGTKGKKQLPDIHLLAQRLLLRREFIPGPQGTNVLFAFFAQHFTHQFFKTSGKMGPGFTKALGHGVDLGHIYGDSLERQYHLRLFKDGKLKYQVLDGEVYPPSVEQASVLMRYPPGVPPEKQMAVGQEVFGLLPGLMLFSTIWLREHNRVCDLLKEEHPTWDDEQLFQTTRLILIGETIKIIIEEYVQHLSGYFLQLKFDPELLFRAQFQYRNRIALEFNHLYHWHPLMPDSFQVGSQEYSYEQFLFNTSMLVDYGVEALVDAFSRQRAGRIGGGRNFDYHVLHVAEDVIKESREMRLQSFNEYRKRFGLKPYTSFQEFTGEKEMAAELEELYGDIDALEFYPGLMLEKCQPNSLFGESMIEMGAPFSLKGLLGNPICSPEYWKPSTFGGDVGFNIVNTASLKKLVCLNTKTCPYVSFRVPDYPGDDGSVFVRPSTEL
The format is functional.

Another test has as its target Adenosine receptor A2a (Homo sapiens, UniProt P29274).
Test [6] has as its target T3, Muscarinic acetylcholine receptor M2 (Homo sapiens, UniProt P08172).
T3 sequence (P08172 whole entry): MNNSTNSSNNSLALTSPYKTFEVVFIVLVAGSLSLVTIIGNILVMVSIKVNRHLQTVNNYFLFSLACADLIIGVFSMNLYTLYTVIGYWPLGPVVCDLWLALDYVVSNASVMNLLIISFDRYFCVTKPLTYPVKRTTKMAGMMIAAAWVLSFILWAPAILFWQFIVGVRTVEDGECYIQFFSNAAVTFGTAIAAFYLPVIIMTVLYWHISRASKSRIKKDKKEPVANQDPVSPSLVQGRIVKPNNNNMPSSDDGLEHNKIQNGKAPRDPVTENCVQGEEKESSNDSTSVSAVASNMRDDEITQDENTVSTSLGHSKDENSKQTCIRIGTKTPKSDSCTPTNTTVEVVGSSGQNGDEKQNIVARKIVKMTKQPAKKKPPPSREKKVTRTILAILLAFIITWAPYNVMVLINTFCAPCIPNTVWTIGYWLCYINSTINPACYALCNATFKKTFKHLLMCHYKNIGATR
The format is functional, cell-based.

For test [7], the target named is Growth hormone secretagogue receptor type 1 (Homo sapiens, UniProt Q92847).
Chain of Growth hormone secretagogue receptor type 1 (Q92847 whole entry): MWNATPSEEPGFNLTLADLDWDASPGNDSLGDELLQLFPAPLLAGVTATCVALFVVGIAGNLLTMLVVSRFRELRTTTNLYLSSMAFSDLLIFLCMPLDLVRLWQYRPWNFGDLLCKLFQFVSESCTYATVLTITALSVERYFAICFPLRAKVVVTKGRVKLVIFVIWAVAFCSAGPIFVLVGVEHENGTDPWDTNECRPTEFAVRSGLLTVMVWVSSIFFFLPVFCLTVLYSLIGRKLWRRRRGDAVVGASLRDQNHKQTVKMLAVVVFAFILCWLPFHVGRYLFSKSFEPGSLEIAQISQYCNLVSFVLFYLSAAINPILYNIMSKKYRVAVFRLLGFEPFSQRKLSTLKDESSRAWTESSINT
Another test addresses Motilin receptor (Homo sapiens, UniProt O43193).
Test [8] concerns the target T4, 5-hydroxytryptamine receptor 1A (Homo sapiens, UniProt P08908).
T4 sequence (P08908 whole entry): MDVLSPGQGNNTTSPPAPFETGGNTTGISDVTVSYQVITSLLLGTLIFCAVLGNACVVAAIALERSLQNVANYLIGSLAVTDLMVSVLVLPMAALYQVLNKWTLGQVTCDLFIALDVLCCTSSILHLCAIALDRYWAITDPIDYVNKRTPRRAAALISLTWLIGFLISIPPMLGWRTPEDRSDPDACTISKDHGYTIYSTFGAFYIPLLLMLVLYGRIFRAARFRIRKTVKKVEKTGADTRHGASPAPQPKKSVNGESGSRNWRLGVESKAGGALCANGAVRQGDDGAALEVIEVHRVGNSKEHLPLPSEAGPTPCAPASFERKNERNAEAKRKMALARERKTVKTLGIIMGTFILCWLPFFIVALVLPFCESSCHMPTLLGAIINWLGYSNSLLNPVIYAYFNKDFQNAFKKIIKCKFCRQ
The format is functional, cell-based.

Test [9] deals with T5, Alpha-2A adrenergic receptor (Homo sapiens, UniProt P08913).
T5 sequence (P08913 whole entry): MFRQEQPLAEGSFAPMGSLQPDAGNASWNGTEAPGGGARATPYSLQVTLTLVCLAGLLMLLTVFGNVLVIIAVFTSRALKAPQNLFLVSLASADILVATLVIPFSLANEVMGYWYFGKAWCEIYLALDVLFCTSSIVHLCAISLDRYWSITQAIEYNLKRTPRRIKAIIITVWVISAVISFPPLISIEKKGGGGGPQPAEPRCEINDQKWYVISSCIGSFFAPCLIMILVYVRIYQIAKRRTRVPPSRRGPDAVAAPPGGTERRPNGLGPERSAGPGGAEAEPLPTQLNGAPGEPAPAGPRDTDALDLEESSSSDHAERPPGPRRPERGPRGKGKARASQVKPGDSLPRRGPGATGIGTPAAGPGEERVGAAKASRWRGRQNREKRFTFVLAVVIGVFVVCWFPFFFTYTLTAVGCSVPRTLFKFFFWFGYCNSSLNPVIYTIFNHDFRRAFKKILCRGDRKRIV
The format is functional, cell-based.
Further: assay procedure not described here.

Chain of Motilin receptor (O43193 whole entry): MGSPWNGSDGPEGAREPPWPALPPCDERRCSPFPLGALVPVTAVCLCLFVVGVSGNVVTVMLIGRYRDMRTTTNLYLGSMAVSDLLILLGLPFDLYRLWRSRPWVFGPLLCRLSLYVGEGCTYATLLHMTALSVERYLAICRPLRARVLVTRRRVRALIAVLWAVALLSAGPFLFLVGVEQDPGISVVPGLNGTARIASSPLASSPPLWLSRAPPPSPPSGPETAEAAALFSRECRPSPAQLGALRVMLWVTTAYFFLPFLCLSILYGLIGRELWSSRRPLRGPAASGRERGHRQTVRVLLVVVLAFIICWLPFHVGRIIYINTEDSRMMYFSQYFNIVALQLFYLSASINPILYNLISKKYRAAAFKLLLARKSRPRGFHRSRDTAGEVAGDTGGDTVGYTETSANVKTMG
Chain of Adenosine receptor A2a (P29274 whole entry): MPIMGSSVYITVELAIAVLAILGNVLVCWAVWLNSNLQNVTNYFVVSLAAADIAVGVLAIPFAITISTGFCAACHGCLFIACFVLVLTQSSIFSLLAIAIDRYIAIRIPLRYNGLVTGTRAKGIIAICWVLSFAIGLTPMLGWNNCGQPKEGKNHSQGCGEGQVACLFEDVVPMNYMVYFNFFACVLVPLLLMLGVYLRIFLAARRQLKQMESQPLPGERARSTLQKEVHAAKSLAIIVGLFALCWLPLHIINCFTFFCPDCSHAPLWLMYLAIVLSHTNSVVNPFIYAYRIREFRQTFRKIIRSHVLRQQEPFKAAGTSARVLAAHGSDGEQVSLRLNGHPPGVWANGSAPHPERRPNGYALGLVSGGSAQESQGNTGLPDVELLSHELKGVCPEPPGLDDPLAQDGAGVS
Chain of Voltage-gated inwardly rectifying potassium channel KCNH2 (Q12809 whole entry): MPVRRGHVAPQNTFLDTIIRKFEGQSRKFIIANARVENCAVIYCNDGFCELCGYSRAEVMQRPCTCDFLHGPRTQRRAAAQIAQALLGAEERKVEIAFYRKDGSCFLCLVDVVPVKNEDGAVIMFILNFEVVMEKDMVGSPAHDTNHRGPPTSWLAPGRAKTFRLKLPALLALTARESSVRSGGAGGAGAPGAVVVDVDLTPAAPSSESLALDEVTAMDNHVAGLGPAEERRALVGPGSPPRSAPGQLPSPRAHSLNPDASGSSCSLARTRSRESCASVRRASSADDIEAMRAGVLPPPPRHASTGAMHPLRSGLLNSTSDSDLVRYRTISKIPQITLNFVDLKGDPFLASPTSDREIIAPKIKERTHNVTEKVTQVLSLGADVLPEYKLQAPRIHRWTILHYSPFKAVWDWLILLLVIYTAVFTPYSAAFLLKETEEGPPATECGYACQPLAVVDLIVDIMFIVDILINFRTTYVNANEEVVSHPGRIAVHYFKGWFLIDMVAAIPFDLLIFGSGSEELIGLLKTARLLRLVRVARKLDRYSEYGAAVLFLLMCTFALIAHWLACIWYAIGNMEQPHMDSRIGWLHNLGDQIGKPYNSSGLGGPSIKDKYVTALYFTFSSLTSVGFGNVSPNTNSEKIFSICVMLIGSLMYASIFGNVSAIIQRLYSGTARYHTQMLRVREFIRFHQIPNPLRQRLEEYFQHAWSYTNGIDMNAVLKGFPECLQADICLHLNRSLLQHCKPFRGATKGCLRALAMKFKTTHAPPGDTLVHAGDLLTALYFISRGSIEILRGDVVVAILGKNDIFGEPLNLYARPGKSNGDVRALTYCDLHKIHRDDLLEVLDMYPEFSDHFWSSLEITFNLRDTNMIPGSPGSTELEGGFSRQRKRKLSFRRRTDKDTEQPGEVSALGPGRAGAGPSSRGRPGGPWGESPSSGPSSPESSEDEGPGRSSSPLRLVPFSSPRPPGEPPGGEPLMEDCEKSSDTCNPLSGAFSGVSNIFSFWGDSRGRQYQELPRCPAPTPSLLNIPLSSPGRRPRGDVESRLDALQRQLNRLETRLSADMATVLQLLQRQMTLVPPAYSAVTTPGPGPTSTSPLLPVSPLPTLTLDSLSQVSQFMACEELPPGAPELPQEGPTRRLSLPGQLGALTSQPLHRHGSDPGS

For the compound `COC(c1ccccc1)(c1ccccc1)[C@H](Oc1nc(C)cc(C)n1)C(=O)O` [AMBRISENTAN], the AC50 (usually the midpoint of the concentration-response curve, whichever way the signal moves) in test [1] is greater than 30 µM.
`CC(C)C[C@H]1C(=O)N2CCC[C@H]2[C@]2(O)O[C@](NC(=O)[C@@H]3C=C4c5cccc6[nH]c(Br)c(c56)C[C@H]4N(C)C3)(C(C)C)C(=O)N12` [BROMOCRIPTINE]: the half-maximal activity concentration (AC50) in [2] is greater than 30 µM; in [3], greater than 30 µM; in test [4], greater than 30 µM; in [5], greater than 30 µM; at Adenosine receptor A2a, greater than 30 µM; in test [6] it was 28 µM. Moreover, the AC50 in test [7] is 25 µM; on Motilin receptor it was greater than 30 µM; in test [8], 3.1 µM; in test [1], greater than 30 µM.
`CC1=C(C(=O)O)N2C(=O)[C@@H](NC(=O)[C@H](N)c3ccccc3)[C@H]2SC1` [CEPHALEXIN ANHYDROUS]: the AC50 in test [9] was greater than 30 µM; in test [2], greater than 30 µM; in test [3], greater than 10 µM; in [4], greater than 30 µM; in [5], greater than 30 µM; on Adenosine receptor A2a it was greater than 30 µM. In addition, the AC50 is greater than 30 µM in test [7], greater than 10 µM on Motilin receptor and greater than 30 µM in test [8].
As for `Oc1c(Cl)cc(Cl)c2cccnc12` [CHLOROXINE], the concentration at half-maximal activity (AC50) in [1] was greater than 30 µM.
The same measure, in the same setting: for `CN(C)[C@@H](c1cccc(O)c1)[C@H]1CCCC[C@H]1O` [CIRAMADOL] the value was greater than 30 µM; for `CN(C)CC(c1ccc(O)cc1)C1(O)CCCCC1` (stereo unspecified) [DESVENLAFAXINE], greater than 30 µM; for `CN(C)CCN1C(=O)c2ccccc2N(C)c2ccccc21` [DIBENZEPIN], greater than 30 µM.
As to `N[C@H](C(=O)O)[C@H](O)c1ccc(O)c(O)c1` [DROXIDOPA], the AC50 in [1] was greater than 30 µM.
For the compound `C[C@]12CC[C@@H]3c4ccc(O)cc4CC[C@H]3[C@@H]1C[C@@H](O)[C@@H]2O` [ESTRIOL], the AC50 in test [1] was greater than 30 µM.
Regarding `O=C(O)c1cc(O)ccc1O` [GENTISIC ACID], the AC50 in test [5] was 18 µM; in [1], greater than 30 µM.
`CCC1=C(C)CN(C(=O)NCCc2ccc(S(=O)(=O)NC(=O)N[C@H]3CC[C@H](C)CC3)cc2)C1=O` [GLIMEPIRIDE]: the AC50 in [1] was greater than 30 µM.
As to `C[N+]1(C)CCC(OC(=O)C(O)(c2ccccc2)C2CCCC2)C1` (stereo unspecified) [GLYCOPYRRONIUM BROMIDE], the AC50 in [2] was greater than 30 µM; in test [7] it was greater than 30 µM; at Motilin receptor, greater than 10 µM.
As to `CC(C)Nc1ncccn1` [ISAXONINE], the AC50 in [1] is greater than 30 µM.
Same read-out and setting: for `OCCN1C[C@H](O)[C@@H](O)[C@H](O)[C@H]1CO` [MIGLITOL] the value was greater than 30 µM; for `CC(=O)N[C@@H]1[C@@H](O)[C@H](O)[C@@H](CO)O[C@H]1O` [N-ACETYLGLUCOSAMINE], greater than 30 µM.
Same read-out and setting: the figure for `O=C(CCNNC(=O)c1ccncc1)NCc1ccccc1` [NIALAMIDE] is greater than 30 µM; for `CC[N+]1(C)[C@@H]2CC(OC(=O)[C@H](CO)c3ccccc3)C[C@H]1[C@@H]1O[C@@H]12` (stereo partly specified) [OXITROPIUM] it is greater than 30 µM; for `CC(C)(C)NC[C@H](O)COc1ccccc1C1CCCC1` [PENBUTOLOL] it is 11 µM.
`CC(C)(S)[C@@H](N)C(=O)O` [PENICILLAMINE]: the AC50 in test [1] was greater than 30 µM.
In the case of `CCCN1C[C@H](CSC)C[C@@H]2c3cccc4[nH]cc(c34)C[C@H]21` [PERGOLIDE], the AC50 (in test [2]; in test [3]; in test [4]; in test [5]; at Adenosine receptor A2a; in test [6]) was greater than 30 µM each time. The AC50 in test [7] was greater than 30 µM; at Motilin receptor, greater than 30 µM; in [1], 0.22 µM.
As for `C1CCC(C(CC2CCCCN2)C2CCCCC2)CC1` (stereo unspecified) [PERHEXILINE], the AC50 is greater than 30 µM in test [2]; greater than 30 µM in test [3]; greater than 30 µM in [4]; greater than 30 µM in [5]; greater than 30 µM at Adenosine receptor A2a; 4.9 µM in [6]. Also, the AC50 in [7] is 6.2 µM; on Motilin receptor, 29 µM; in [8], 9.1 µM.
On to `CN(C)S(=O)(=O)c1ccc2c(c1)N(CCCN1CCC(CCO)CC1)c1ccccc1S2` [PIPOTIAZINE], for which, in [1], the AC50 was 0.39 µM.
With `COc1cc(NC(C)CCCN)c2ncccc2c1` (stereo unspecified) [PRIMAQUINE], the AC50 is 2.9 µM in test [2]; greater than 30 µM in test [5]; greater than 30 µM on Adenosine receptor A2a; greater than 30 µM in test [7]; greater than 30 µM at Motilin receptor; 20 µM in test [1].
As to `Cc1c(C(=O)NN2CCCCC2)nn(-c2ccc(Cl)cc2Cl)c1-c1ccc(Cl)cc1` [RIMONABANT], the AC50 in [9] is greater than 30 µM; in test [2], 8.4 µM; in test [3] it was greater than 30 µM; in [4], greater than 30 µM; in test [5], greater than 30 µM; at Adenosine receptor A2a it was greater than 30 µM. Moreover, the AC50 in test [7] was 25 µM; at Motilin receptor, 21 µM; in test [8] it was greater than 30 µM; in [1] it was greater than 30 µM.
For `Clc1ccc2nsnc2c1NC1=NCCN1` [TIZANIDINE], the AC50 in test [2] was greater than 30 µM; in test [3], greater than 10 µM; in test [4], greater than 30 µM; in [5], greater than 30 µM; at Adenosine receptor A2a, greater than 30 µM; in test [6] it was greater than 30 µM. Further, the AC50 in test [7] is greater than 30 µM; at Motilin receptor, greater than 10 µM; in test [8] it was greater than 30 µM; in test [1] it was greater than 30 µM.
Consider `CCOC(=O)[C@H](CCc1ccccc1)N[C@@H](C)C(=O)N1[C@H](C(=O)O)C[C@H]2CCCC[C@@H]21` [TRANDOLAPRIL], for which the AC50 in test [1] was greater than 30 µM.
On to `CCCCCCOc1nsnc1C1=CCCN(C)C1` [XANOMELINE], for which the AC50 in test [1] worked out at 1.3 µM.
